Paper PMC6332194, “Synthesis of C3/C1-Substituted Tetrahydroisoquinolines” (Molecules, 2015)

Legend:
Experiment in all cases: fluorogenic peptide-AMC hydrolysis assay
Type in all cases: biochemical
[1] = target: T1, human 20S proteasome, β2-subunits (trypsin-like activity) (Homo sapiens, UniProt Q99436)
T1 construct: gene PSMB7; commercial 20S core particle (Biomol GmbH); with Proteasome subunit beta type-3; Proteasome subunit beta type-5; Proteasome subunit beta type-6; Proteasome subunit beta type-1; Proteasome subunit beta type-2; Proteasome subunit beta type-4; Proteasome subunit alpha type-6; Proteasome subunit alpha type-2; Proteasome subunit alpha type-4; Proteasome subunit alpha type-7; Proteasome subunit alpha type-5; Proteasome subunit alpha type-1; Proteasome subunit alpha type-3
T1 sequence (Q99436 44-277): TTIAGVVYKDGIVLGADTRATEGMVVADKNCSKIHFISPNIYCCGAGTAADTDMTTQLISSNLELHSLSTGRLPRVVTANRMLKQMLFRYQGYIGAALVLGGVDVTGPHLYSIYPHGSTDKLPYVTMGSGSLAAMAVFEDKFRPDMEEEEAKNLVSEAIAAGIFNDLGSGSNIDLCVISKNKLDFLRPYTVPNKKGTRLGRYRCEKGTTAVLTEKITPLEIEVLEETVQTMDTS

[2] = target: T2, human 20S proteasome, β5-subunits (chymotrypsin-like activity) (Homo sapiens, UniProt P28074)
T2 construct: gene PSMB5; commercial 20S core particle (Biomol GmbH); with Proteasome subunit beta type-1; Proteasome subunit beta type-6; Proteasome subunit beta type-7; Proteasome subunit beta type-3; Proteasome subunit beta type-2; Proteasome subunit beta type-4; Proteasome subunit alpha type-6; Proteasome subunit alpha type-2; Proteasome subunit alpha type-4; Proteasome subunit alpha type-7; Proteasome subunit alpha type-5; Proteasome subunit alpha type-1; Proteasome subunit alpha type-3
T2 sequence (P28074 60-263): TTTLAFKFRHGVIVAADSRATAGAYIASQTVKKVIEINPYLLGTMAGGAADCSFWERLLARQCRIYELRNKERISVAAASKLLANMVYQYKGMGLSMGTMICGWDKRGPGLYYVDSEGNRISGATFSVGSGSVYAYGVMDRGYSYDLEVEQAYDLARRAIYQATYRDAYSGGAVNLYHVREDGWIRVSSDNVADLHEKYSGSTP

[3] = target: T3, recombinant Leishmania mexicana cysteine protease CPB2.8 (Leishmania mexicana, UniProt P36400)
T3 construct: gene LMCPB; recombinant; often used without C-terminal extension
T3 sequence (P36400 126-340): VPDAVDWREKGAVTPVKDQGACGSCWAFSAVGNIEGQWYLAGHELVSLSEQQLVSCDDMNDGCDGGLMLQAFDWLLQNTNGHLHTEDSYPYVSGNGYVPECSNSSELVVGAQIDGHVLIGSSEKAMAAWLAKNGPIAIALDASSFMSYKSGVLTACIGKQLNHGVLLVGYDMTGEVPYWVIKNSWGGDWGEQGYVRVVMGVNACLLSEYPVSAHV

COc1cc2c(cc1O)[C@@H](C)N(C)CC2 [compound 2, N-methylisosalsoline]
inhibition at 20 µM [1]: ~20% | inhibition at 20 µM [2]: ~40% | inhibition at 20 µM [3]: ~14%
